A word on the IC50: it is the point on the concentration scale where inhibition reaches its midpoint.

The target of assay [1] is T1, HCV 2a-c NS3-NS4A heterodimer protein (UniProt P26660).
T1 sequence (P26660 1031-1661): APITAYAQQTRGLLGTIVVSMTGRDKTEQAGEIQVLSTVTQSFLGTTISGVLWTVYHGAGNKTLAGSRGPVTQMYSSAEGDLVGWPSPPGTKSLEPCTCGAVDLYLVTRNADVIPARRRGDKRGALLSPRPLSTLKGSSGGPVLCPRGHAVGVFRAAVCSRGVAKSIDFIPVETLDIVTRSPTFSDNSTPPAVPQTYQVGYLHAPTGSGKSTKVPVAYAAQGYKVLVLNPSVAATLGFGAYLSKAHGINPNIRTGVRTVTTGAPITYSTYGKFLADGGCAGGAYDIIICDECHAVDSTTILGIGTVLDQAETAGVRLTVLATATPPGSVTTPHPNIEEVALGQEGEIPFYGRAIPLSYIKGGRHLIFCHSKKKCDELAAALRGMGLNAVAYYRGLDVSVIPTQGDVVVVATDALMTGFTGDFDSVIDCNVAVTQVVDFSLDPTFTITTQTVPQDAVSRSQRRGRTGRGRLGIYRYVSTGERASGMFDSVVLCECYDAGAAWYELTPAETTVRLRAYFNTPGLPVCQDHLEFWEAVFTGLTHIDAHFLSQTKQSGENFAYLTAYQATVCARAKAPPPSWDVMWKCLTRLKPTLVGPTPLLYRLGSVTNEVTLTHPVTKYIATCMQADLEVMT
Description: In vitro HCV NS3 protease assay (fluorogenic depsipeptide), genotype 2a-c. The assay is classed as biochemical, HCV genotype 2a-c. To be noted: read-out: IC50 HCV-2a-c; HCV 2a-c NS3-NS4A protease. How it is done: The fluorogenic depsipeptide substrate used to assess inhibition of protease activity of the HCV 1a, 1b, 2b, 2a-c and 3a NS3-NS4A heterodimer protein was anthranilyl-DDIVPAbu[C(O)—O]-AMY(3-NO2)TW—OH (SEQ ID No.10). This substrate is cleaved between the aminobutyric (Abu) and the alanine residues. The sequence DDIVPAbu-AMYTW (SEQ ID No.11) is derived from the sequence DDIVPC—SMSYTW (SEQ ID No.12) corresponding to the NS5A/NS5B natural cleavage site. […] The protease activity was assayed in 50 mM Tris-HCl, pH 8.0, 0.25M sodium citrate, 0.01% n-dodecyl-β-D-maltoside, 1 mM TCEP. The assay was performed in a Microfluor®2 White U-Bottom Microtiter® plate. 5 μM of the substrate and various concentrations of the test compound were incubated with 1.5 nM of HCV 1a or 1b NS3-NS4A heterodimer protein for 45 minutes at 23° C. under gentle agitation. […] The reaction was terminated by the addition of a 1M 2-[N-morpholino]ethanesulfonic acid solution at pH 5.8.
(§1) The fluorescence was monitored using the BMG POLARstar Galaxy 96-well plate reader with an excitation filter of 320 nm, and an emission filter of 405 nm. The level of inhibition (% inhibition) of each well containing test compound was calculated with the following equation (FU=fluorescence unit): [formula]
The calculated % inhibition values were then used to determine IC50, slope factor (n) and maximum inhibition (Imax) by the non-linear regression routine NLIN procedure of SAS using the following equation: [formula] Inhibition Constant (Ki) Determination and mode of Inhibition

For assay [2], the target named is T2, HCV 3a NS3-NS4A heterodimer protein (UniProt Q81258).
T2 construct: fused on or other part: 28 extra N-terminal residues with a hexahistidine tag and an rTEV cleavage site
T2 sequence (Q81258 1033-1663): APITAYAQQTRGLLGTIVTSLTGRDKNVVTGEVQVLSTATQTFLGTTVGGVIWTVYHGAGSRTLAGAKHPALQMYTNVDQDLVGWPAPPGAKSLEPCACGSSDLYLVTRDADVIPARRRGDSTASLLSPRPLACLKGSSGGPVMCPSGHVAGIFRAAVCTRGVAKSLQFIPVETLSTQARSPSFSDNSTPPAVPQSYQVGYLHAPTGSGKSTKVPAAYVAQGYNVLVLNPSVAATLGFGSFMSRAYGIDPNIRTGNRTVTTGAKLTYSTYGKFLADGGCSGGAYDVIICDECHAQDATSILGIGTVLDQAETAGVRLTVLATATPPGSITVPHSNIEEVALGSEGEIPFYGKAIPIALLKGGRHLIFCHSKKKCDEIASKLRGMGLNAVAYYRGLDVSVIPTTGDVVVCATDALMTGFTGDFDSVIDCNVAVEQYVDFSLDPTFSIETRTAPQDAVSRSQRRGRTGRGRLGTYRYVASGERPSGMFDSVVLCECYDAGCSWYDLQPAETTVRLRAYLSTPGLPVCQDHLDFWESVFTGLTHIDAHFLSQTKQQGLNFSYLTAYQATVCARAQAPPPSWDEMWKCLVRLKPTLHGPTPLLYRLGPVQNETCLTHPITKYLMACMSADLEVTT
As to the kind of experiment: In vitro HCV NS3 protease assay (fluorogenic depsipeptide), genotype 3a. It is filed as biochemical, HCV genotype 3a. Particulars: read-out: IC50 HCV-3a; HCV 3a NS3-NS4A protease.
Source text: The NS3-NS4 protease genes of HCV genotypes 2b and 3a were amplified from RNA isolated from clinical samples of HCV-infected patients obtained from Dr. G. Steinmann (Germany) using RT-PCR. The primers used for the RT-PCR were 5′[…]3′ (SEQ ID No. 6) as the forward and 5′[…]3′ (SEQ ID No.7) as the reverse primer for the NS3-NS4A of HCV genotype 2b and; 5′[…]3′ (SEQ ID No. 8) as the forward and 5′[…]3′ (SEQ ID No. 9) as the reverse primer for HCV genotype 3a. Each primer contained a unique restriction site for subcloning the fragment in the bacterial expression vector pET11a. The cloning into the vector generated a recombinant fusion protein containing an additional N-terminal 28 residues that comprised a hexahistidine tag and a rTEV protease cleavage site. The recombinant plasmids were used to transform the bacterial strain BL21 DE3 pLysS for protein expression and recombinant protein expression was induced by the addition of IPTG. Following expression, the cells were collected by centrifugation at 4° C. and the cell pellet lysed in a buffer containing 50 mM sodium phosphate, 0.5M NaCl, 40% glycerol, 1.5% NP-40, 0.5% Triton X-100 and the soluble protein fraction was passed through a 5ml HiTrap chelating affinity column as described above. A poly(U)-Sepharose purification step can optionally be conducted in order to remove degradation products and contaminants. […]
as §1
The calculated % inhibition values were then used to determine IC50, slope factor (n) and maximum inhibition (Imax) by the non-linear regression routine NLIN procedure of SAS using the following equation: [formula] […]

As for `COc1ccc2c(O[C@@H]3C[C@H]4C(=O)N[C@]5(C(=O)O)CC5/C=C\CCCCC[C@H](NC(=O)OC5CCCC5)C(=O)N4C3)cc(-c3csc(NC(C)C)n3)nc2c1` (stereo partly drawn) [IV], the figures for the IC50 in assay [1] and in assay [2] were 200 nM and 280 nM, respectively.

For the compound `COc1ccc2c(O[C@@H]3C[C@H]4C(=O)N[C@]5(C(=O)O)CC5/C=C\CCCCC[C@H](NC(=O)OC(C)(C)C)C(=O)N4C3)cc(-c3csc(NC(C)=O)n3)nc2c1` (stereo partly drawn) [III], the IC50 came out at 490 nM in assay [1] and 190 nM in assay [2].

As to `COc1ccc2c(O[C@@H]3C[C@H]4C(=O)N[C@]5(C(=O)O)CC5/C=C\CCCCC[C@H](NC(=O)OC(C)(C)C)C(=O)N4C3)cc(-c3ccccc3)nc2c1` (stereo partly drawn) [II], the IC50 in assay [1] worked out at 680 nM; in assay [2] it was 360 nM.

These data come from US20050159345A1 (Boehringer Ingelheim International GmbH, priority 2002, published 2005).
